From ChEMBL document CHEMBL5131437, “Development of novel 2-aminoalkyl-6-(2-hydroxyphenyl)pyridazin-3(2H)-one derivatives as balanced multifunctional agents against Alzheimer's disease” (Eur J Med Chem, 2022)
Calls of active or inactive are those of the source. The calls are words filed in the database; no cut-off is given here.

What was measured:
[1] = Metal chelating activity assessed as Zn2+-compound complex by measuring enhancement of absorption intensity at 246 nm by UV-visible spectrophotometry
[2] = molecular target: Amyloid-beta precursor protein (Homo sapiens) (UniProt P05067); assay: Inhibition of Cu2+ induced amyloid beta (1 to 42 residues) (unknown origin) disaggregation; conditions: concentration not given here
BV-2 [3] = assay: Anti-neuroinflammation activity in mouse BV-2 cells assessed as decrease in LPS-induced TNFalpha production at 10 uM by ELISA; assay type: functional; design: scale not given: the % may be the effect or the level left
BV-2 [4] = assay: Anti-neuroinflammation activity in mouse BV-2 cells assessed as decrease in LPS-induced TNF-alpha production at 10 uM by ELISA; assay type: functional; design: scale not given: the % may be the effect or the level left
[5] = Metal chelating activity assessed as Fe2+-compound complex by measuring enhancement of absorption intensity at 246 nm by UV-visible spectrophotometry
Mus musculus [6] = assay: Antialzheimer activity against scopolamine-induced cognitive deficit mouse model assessed as decrease in lipid peroxidation at 2.0 mg/kg, IG by step-through passive avoidance test; assay type: functional
Mus musculus [7] = assay: Antialzheimer activity against scopolamine-induced cognitive deficit mouse assessed as improvement in memory impairment by measuring latency time administrated intragastric by step-through passive avoidance test; assay type: functional, organism-based; conditions: dose 2-17.7 mg/kg, route ig, DDE = dose-dependent effect
[8] = Metal chelating activity assessed as AL3+-compound complex by measuring enhancement of absorption intensity at 246 nm by UV-visible spectrophotometry
Mus musculus [9] = assay: Antialzheimer activity against scopolamine-induced cognitive deficit mouse assessed as improvement in memory impairment by measuring reduction in number of errors administrated intragastric by step-through passive avoidance test; assay type: functional, organism-based; conditions: dose 2-17.7 mg/kg, route ig, DDE = dose-dependent effect
BV-2 [10] = assay: Anti-neuroinflammation activity in mouse BV-2 cells assessed as decrease in LPS-induced TNF-alpha production at 0.5 uM by ELISA; assay type: functional; design: scale not given: the % may be the effect or the level left; conditions: time 24 hrs
[11] = molecular target: Amyloid-beta precursor protein (Homo sapiens) (UniProt P05067); assay: Inhibition of Cu2+ induced amyloid beta (1 to 42 residues) (unknown origin) aggregation at 25 uM relative to control
[12] = Drug concentration in mouse brain at 30 mg/kg administered intragastrically measured after 0.5 hrs; assay type: ADME, organism-based; conditions: po, route ig, read-out: Ct
Mus musculus [13] = assay: Antialzheimer activity against scopolamine-induced cognitive deficit mouse model assessed as increase in vitality of SOD at 17.7 mg/kg, IG by step-through passive avoidance test; assay type: functional
Mus musculus [14] = assay: Neuroprotective activity in scopolamine-induced cognitive deficit mouse assessed as improvement in memory impairment at 5.9 mg/kg, IG in presence of donepezil at 5.0 mg/kg; assay type: functional, organism-based
[15] = Ratio of drug concentration in brain to plasma of mouse at 30 mg/kg administered intragastrically measured after 0.5 hrs; assay type: ADME, organism-based; conditions: po, route ig, read-out: logBB (converted)
[16] = molecular target: Amyloid-beta precursor protein (Homo sapiens) (UniProt P05067); assay: Inhibition of self-induced amyloid beta (1 to 42) (unknown origin) disaggregation by Thioflavin T based fluorometric assay relative to control; design: concentration or dose not given beside the values; conditions: concentration not given here
[17] = molecular target: Amyloid-beta precursor protein (Homo sapiens) (UniProt P05067); assay: Inhibition of Cu2+ induced amyloid beta (1 to 42 residues) (unknown origin) aggregation; conditions: concentration not given here
[18] = molecular target: Amyloid-beta precursor protein (Homo sapiens) (UniProt P05067); assay: Inhibition of self-induced amyloid beta (1 to 42) (unknown origin) aggregation by Thioflavin T based fluorometric assay relative to control; design: concentration or dose not given beside the values; conditions: concentration not given here
[19] = molecular target: Amyloid-beta precursor protein (Homo sapiens) (UniProt P05067); assay: Inhibition of Cu2+ induced amyloid beta (1 to 42 ) (unknown origin) aggregation assessed as fibrils formation at 25 uM pre incubated for 24 hrs followed by compound addition incubated for another 24 hrs by Thioflavin T based fluorometric assay
[20] = Metal chelating activity assessed as Fe3+-compound complex by measuring enhancement of absorption intensity at 246 nm by UV-visible spectrophotometry
Mus musculus [21] = assay: Antialzheimer activity against scopolamine-induced cognitive deficit mouse model assessed as increase in vitality of SOD at 2.0 mg/kg, IG by step-through passive avoidance test; assay type: functional
[22] = molecular target: Amyloid-beta precursor protein (Homo sapiens) (UniProt P05067); assay: Inhibition of Cu2+ induced amyloid beta (1 to 42 residues) (unknown origin) assessed as disaggregation at 25 uM relative to control; design: scale not given: the % may be the effect or the level left
BV-2 [23] = assay: Anti-neuroinflammation activity in mouse BV-2 cells assessed as decrease in LPS-induced TNFalpha production at 0.5 uM by ELISA; assay type: functional; design: scale not given: the % may be the effect or the level left
Mus musculus [24] = assay: Antialzheimer activity against scopolamine-induced cognitive deficit mouse model assessed as increase in AChE content at 5.9 mg/kg, IG by step-through passive avoidance test; assay type: functional
BV-2 [25] = assay: Anti-neuroinflammation activity in mouse BV-2 cells assessed as decrease in LPS-induced TNF-alpha production at 2.5 uM by ELISA; assay type: functional; design: scale not given: the % may be the effect or the level left; conditions: time 24 hrs
[26] = Metal chelating activity assessed as Cu2+-compound complex by measuring enhancement of absorption intensity at 246 nm by UV-visible spectrophotometry
Mus musculus [27] = assay: Antialzheimer activity against scopolamine-induced cognitive deficit mouse model assessed as decrease in lipid peroxidation at 17.7 mg/kg, IG by step-through passive avoidance test; assay type: functional
[28] = molecular target: Amyloid-beta precursor protein (Homo sapiens) (UniProt P05067); assay: Inhibition of amyloid beta (1 to 42 ) (unknown origin) self-induced aggregation assessed as reduction in number of amyloid beta (1 to 42 residues) fibrils at 25 uM incubated for 24 hrs by Thioflavin T based fluorometric assay
Mus musculus [29] = assay: Antialzheimer activity against scopolamine-induced cognitive deficit mouse model assessed as decrease in lipid peroxidation at 5.9 mg/kg, IG by step-through passive avoidance test; assay type: functional
[30] = Inhibition of reactive oxygen species production using Cu-ascorbate redox system by coumarin-3-carboxylic acid dye based fluorescence analysis; assay type: functional
Mus musculus [31] = assay: Antialzheimer activity against scopolamine-induced cognitive deficit mouse model assessed as increase in AChE content at 17.7 mg/kg, IG by step-through passive avoidance test; assay type: functional
[32] = Drug concentration in mouse plasma at 30 mg/kg administered intragastrically measured after 0.5 hrs; assay type: ADME, organism-based; conditions: po
[33] = Permeability of the compound in PBS/EtOH buffer (70:30) by PAMPA-BBB assay; assay type: ADME; conditions: read-out: permeability
[34] = molecular target: Amyloid-beta precursor protein (Homo sapiens) (UniProt P05067); assay: Inhibition of amyloid beta (1 to 42 ) (unknown origin) self-induced amyloid beta (1 to 42 ) disaggregation at 25 uM pre incubated for 24 hrs to form fibril followed by compound addition incubated for another 24 hrs by Thioflavin T based fluorometric assay
BV-2 [35] = assay: Anti-neuroinflammation activity in mouse BV-2 cells assessed as decrease in LPS-induced TNFalpha production at 2.5 uM by ELISA; assay type: functional; design: scale not given: the % may be the effect or the level left
Acetylcholinesterase = Acetylcholinesterase (Electrophorus electricus, UniProt O42275); assay: Inhibition of electric eel AChE by Ellman's method; conditions: read-out: IC50
[36] = Neurotoxicity in scopolamine-induced cognitive deficit mouse model measured after re-increasement at 2.0 to 17.7 mg/kg, IG; assay type: toxicity, organism-based; conditions: in vivo, po, dose 2-17.7 mg/kg
[37] = molecular target: Amyloid-beta precursor protein (Homo sapiens) (UniProt P05067); assay: Inhibition of Cu2+ induced amyloid beta (1 to 42 ) (unknown origin) aggregation assessed as fibrils incubated for 24 hrs by compound addition incubated for 24 hrs
[38] = Antioxidant activity of compound assessed as trolox equivalent of ORAC radical scavenging activity by ORAC-FL assay; assay type: functional
Mus musculus [39] = assay: Antialzheimer activity against scopolamine-induced cognitive deficit mouse model assessed as increase in vitality of SOD at 5.9 mg/kg, IG by step-through passive avoidance test; assay type: functional
[40] = test system: Butyrylcholinesterase (Rattus norvegicus); assay: Inhibition of rat serum BuChE at 10 uM by Ellman's method relative to control

Amyloid-beta precursor protein (Homo sapiens), sequence (P05067 whole entry, the tested form may be a part): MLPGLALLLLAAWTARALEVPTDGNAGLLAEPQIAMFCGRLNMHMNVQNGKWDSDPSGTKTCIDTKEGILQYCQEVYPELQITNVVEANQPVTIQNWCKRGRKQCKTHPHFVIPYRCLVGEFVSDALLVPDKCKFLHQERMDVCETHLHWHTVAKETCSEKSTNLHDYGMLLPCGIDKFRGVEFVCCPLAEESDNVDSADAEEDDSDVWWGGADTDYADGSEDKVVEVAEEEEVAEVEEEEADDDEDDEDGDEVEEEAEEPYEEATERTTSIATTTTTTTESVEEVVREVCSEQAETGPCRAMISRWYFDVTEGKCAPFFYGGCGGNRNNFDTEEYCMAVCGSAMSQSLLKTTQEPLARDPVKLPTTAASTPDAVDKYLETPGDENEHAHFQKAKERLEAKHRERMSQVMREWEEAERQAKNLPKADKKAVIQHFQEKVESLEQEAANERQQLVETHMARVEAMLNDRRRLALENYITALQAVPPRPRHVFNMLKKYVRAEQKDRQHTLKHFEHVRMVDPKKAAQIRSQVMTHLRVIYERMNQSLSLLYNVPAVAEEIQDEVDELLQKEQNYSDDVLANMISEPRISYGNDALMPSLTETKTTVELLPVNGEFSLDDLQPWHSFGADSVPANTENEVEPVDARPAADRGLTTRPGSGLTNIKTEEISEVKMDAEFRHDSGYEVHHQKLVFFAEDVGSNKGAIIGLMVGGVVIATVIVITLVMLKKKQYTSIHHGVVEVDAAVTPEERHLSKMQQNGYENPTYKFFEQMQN
Acetylcholinesterase, sequence (O42275 whole entry): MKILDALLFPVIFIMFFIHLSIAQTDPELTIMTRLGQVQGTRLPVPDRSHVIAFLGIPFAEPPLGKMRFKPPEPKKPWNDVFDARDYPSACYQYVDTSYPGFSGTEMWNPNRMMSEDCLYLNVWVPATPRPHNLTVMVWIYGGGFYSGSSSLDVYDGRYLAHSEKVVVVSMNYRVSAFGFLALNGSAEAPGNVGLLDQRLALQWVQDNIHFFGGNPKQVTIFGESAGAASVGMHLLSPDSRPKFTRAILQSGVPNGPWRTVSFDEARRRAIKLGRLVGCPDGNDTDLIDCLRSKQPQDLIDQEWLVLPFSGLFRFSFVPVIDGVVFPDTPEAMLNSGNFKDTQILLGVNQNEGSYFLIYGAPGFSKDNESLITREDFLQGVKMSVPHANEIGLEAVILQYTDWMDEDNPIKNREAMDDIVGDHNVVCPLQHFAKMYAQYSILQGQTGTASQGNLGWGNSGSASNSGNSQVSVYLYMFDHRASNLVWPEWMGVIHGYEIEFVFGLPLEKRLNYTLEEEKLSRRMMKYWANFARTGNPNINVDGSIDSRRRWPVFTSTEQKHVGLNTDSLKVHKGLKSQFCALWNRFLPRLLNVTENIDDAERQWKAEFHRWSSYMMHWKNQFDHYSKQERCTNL

## CCN(CCCCCCn1nc(-c2cc(N(C)C)ccc2O)ccc1=O)Cc1ccccc1N(C)C
[1]
  Activity: Active
[2]
  inhibition: 1.17%
BV-2 [3]
  Activity: 70.2%
BV-2 [4]
  Activity: 73.7%
[5]
  Activity: Active
Mus musculus [6]
  Activity: 2.73 nmol/mg
Mus musculus [7]
  Activity: Dde
[8]
  Activity: Active
Mus musculus [9]
  Activity: Dde
BV-2 [10]
  Activity: 26.3%
[11]
  inhibition: 99.6%
[12]
  concentration at 0.5 h: 82.9 ng/g
Mus musculus [13]
  Activity: 161.02 U/mg
Mus musculus [14]
  Activity: Active
[15]
  Kp at 0.5 h: 0.245
[16]
  inhibition: 89%
[17]
  inhibition: 2.18%
[18]
  inhibition: 99.1%
[19]
  Activity: Active
[20]
  Activity: Active
Mus musculus [21]
  Activity: 131.33 U/mg
[22]
  Activity: 94.8%
BV-2 [23]
  Activity: 35.4%
Mus musculus [24]
  Activity: 27.3 µg/mg
BV-2 [25]
  Activity: 52.6%
[26]
  Activity: Active
Mus musculus [27]
  Activity: 2.04 nmol/mg
[28]
  inhibition: Active
Mus musculus [29]
  Activity: 2.33 nmol/mg
[30]
  inhibition: Active
Mus musculus [31]
  Activity: 30.3 µg/mg
[32]
  concentration at 0.5 h: 324 ng/mL
[33]
  Papp at 16 h: 13.5 ×10⁻⁶ cm/s
[34]
  inhibition: Active
BV-2 [35]
  Activity: 46.8%
Acetylcholinesterase
  IC50: 0.2 µM
[36]
  Activity: Non-Toxic
[37]
  Activity: Active
[38]
  Activity: 3.03
Mus musculus [39]
  Activity: 146.67 U/mg
[40]
  inhibition: 18.2%
